Pest or weed control data for 27 compounds are collected here from patent publication US8796001B2, “Metalloenzyme inhibitor compounds” (Viamet Pharmaceuticals, Inc., priority 2011, dated 2014).

This experiment has as its system Puccinia recondita tritici = Puccinia triticina (PUCCRT). Put plainly: Fungicidal activity vs. leaf rust on wheat plants. The format is in vivo. Conditions: wheat (Yuma) sprayed at 50 ppm, inoculated the following day, rated 7-9 days later, read-out: Puccinia Rating (% Disease Control @ 50 ppm). From the text: D. Evaluation of Fungicidal Activity vs. Leaf Rust (Causal Agent Puccinia Recondita Tritici=Puccinia Triticina; Bayer Code PUCCRT)
Each pot contained 3-8 seedlings. These plants were sprayed until wet with the formulated test compounds. The compounds were formulated at 50 ppm in 10 vol. % acetone plus 90 vol. % Triton X water (deionized water 99.99 wt %+0.01 wt % Triton X100), giving a “formulated test compound.” Formulated test compounds were applied to plants using a turn table sprayer fitted with two opposing air atomization nozzles which delivered approximately 1500 L/ha of spray volume. On the following day, the leaves were inoculated with an aqueous spore suspension of Puccinia recondita tritici and the plants were kept in high humidity overnight to permit spores to germinate and infect the leaf. The plants were then transferred to a greenhouse until disease developed on untreated control plants. Disease severity was evaluated 7-9 days later, depending on the speed of disease development.
In each case of Table 3, the Puccinia rating scale is as follows: […]
`N#Cc1cnc(Oc2ccc(C(F)(F)C(O)(Cn3cnnn3)c3ccc(F)cc3F)nc2)s1` (stereo not drawn) [Compound 107, 2-((6-(2-(2,4-difluorophenyl)-1,1-difluoro-2-hydroxy-3-(1H-tetrazol-1-yl)propyl)pyridin-3-yl)oxy)thiazole-5-carbonitrile]: the pest or weed control at 50 ppm was < 40%.

Consider `OC(Cn1cnnn1)(c1ccc(F)cc1F)C(F)(F)c1ccc(OCc2ccc(F)c(F)c2)cn1` (stereo not drawn) [Compound 28, 1-(5-((3,4-Difluorobenzyl)oxy)pyridin-2-yl)-2-(2,4-difluorophenyl)-1,1-difluoro-3-(1H-tetrazol-1-yl)propan-2-ol], for which the pest or weed control at 50 ppm lay within 80 to 100%.

On to `O=Cc1ccc(Oc2ccc(C(F)(F)C(O)(Cn3cnnn3)c3ccc(F)cc3F)nc2)nc1` (stereo not drawn) [Compound 101, 6-((6-(2-(2,4-difluorophenyl)-1,1-difluoro-2-hydroxy-3-(1H-tetrazol-1-yl)propyl)pyridin-3-yl)oxy)nicotinaldehyde], for which the pest or weed control at 50 ppm is < 40%.

For `N#Cc1ccc(COc2ccc(C(F)(F)C(O)(Cn3cnnn3)c3ccc(F)cc3F)nc2)nc1` (stereo not drawn) [Compound 50, 6-(((6-(2-(2,4-Difluorophenyl)-1,1-difluoro-2-hydroxy-3-(1H-tetrazol-1-yl)propyl)pyridin-3-yl)oxy)methyl)nicotinonitrile], the pest or weed control at 50 ppm was 80 to 100%.

For the compound `OC(Cn1cnnn1)(c1ccc(F)cc1F)C(F)(F)c1ccc(OCc2ccc(C(F)(F)F)cn2)cn1` (stereo not drawn) [Compound 114, 2-(2,4-difluorophenyl)-1,1-difluoro-3-(1H-tetrazol-1-yl)-1-(5-((5-(trifluoromethyl)pyridin-2-yl)methoxy)pyridin-2-yl)propan-2-ol], the pest or weed control at 50 ppm is 80 to 100%.

On to `OC(Cn1cnnn1)(c1ccc(F)cc1F)C(F)(F)c1ccc(OCC(F)c2ccc(OC(F)F)cc2)cn1` (stereo not drawn) [Compound 124, 1-(5-(2-(4-(difluoromethoxy)phenyl)-2-fluoroethoxy)pyridin-2-yl)-2-(2,4-difluorophenyl)-1,1-difluoro-3-(1H-tetrazol-1-yl)propan-2-ol], for which the pest or weed control at 50 ppm is 80 to 100%.

On to `OC(Cn1cnnn1)(c1ccc(F)cc1F)C(F)(F)c1ccc(OCc2ccc(Cl)cn2)cn1` (stereo not drawn) [Compound 113, 1-(5-((5-chloropyridin-2-yl)methoxy)pyridin-2-yl)-2-(2,4-difluorophenyl)-1,1-difluoro-3-(1H-tetrazol-1-yl)propan-2-ol], for which the pest or weed control at 50 ppm was 80 to 100%.

Turning to `OC(Cn1cnnn1)(c1ccc(F)cc1F)C(F)(F)c1ccc(OCC(F)(F)F)cn1` (stereo not drawn) [Compound 12, 2-(2,4-Difluorophenyl)-1,1-difluoro-3-(1H-tetrazol-1-yl)-1-(5-(2,2,2-trifluoroethoxy)pyridin-2-yl)propan-2-ol], the pest or weed control at 50 ppm is 80 to 100%.

`OC(Cn1cnnn1)(c1ccc(F)cc1F)C(F)(F)c1ccc(Oc2ncc(C(F)(F)F)cc2Cl)cn1` (stereo not drawn) [Compound 92, 1-(5-((3-chloro-5-(trifluoromethyl)pyridin-2-yl)oxy)pyridin-2-yl)-2-(2,4-difluorophenyl)-1,1-difluoro-3-(1H-tetrazol-1-yl)propan-2-ol]: the pest or weed control at 50 ppm lay in the range of 80 to 100%.

As for `OC(Cn1cnnn1)(c1ccc(F)cc1F)C(F)(F)c1ccc(OCc2ccnc(Cl)c2)cn1` (stereo not drawn) [Compound 117, 1-(5-((2-chloropyridin-4-yl)methoxy)pyridin-2-yl)-2-(2,4-difluorophenyl)-1,1-difluoro-3-(1H-tetrazol-1-yl)propan-2-ol], the pest or weed control at 50 ppm lay in the range of 80 to 100%.

For the compound `OC(Cn1cnnn1)(c1ccc(F)cc1F)C(F)(F)c1ccc(Oc2ccc(C(F)(F)F)cc2)cn1` (stereo not drawn) [Compound 75, 2-(2,4-Difluorophenyl)-1,1-difluoro-3-(1H-tetrazol-1-yl)-1-(5-(4-(trifluoromethyl)phenoxy)pyridin-2-yl)propan-2-ol], the pest or weed control at 50 ppm is 80 to 100%.

On to `OC(Cn1cnnn1)(c1ccc(F)cc1F)C(F)(F)c1ccc(OCc2cccc(C(F)(F)F)c2)cn1` (stereo not drawn) [Compound 26, 2-(2,4-Difluorophenyl)-1,1-difluoro-3-(1H-tetrazol-1-yl)-1-(5-((3-(trifluoromethyl)benzyl)oxy)pyridin-2-yl)propan-2-ol], for which the pest or weed control at 50 ppm lay within 80 to 100%.

As for `OC(Cn1cnnn1)(c1ccc(F)cc1F)C(F)(F)c1ccc(OCc2cccs2)cn1` (stereo not drawn) [Compound 49, 2-(2,4-Difluorophenyl)-1,1-difluoro-3-(1H-tetrazol-1-yl)-1-(5-(thiophen-2-ylmethoxy)pyridin-2-yl)propan-2-ol], the pest or weed control at 50 ppm was in the range of 80 to 100%.

`OC(Cn1cnnn1)(c1ccc(F)cc1F)C(F)(F)c1ccc(OCC(F)c2ccccc2)cn1` (stereo not drawn) [Compound 123, 2-(2,4-difluorophenyl)-1,1-difluoro-1-(5-(2-fluoro-2-phenylethoxy)pyridin-2-yl)-3-(1H-tetrazol-1-yl)propan-2-ol]: the pest or weed control at 50 ppm lay within 80 to 100%.

For the compound `N#Cc1cccc(COc2ccc(C(F)(F)C(O)(Cn3cnnn3)c3ccc(F)cc3F)nc2)c1F` (stereo not drawn) [Compound 67, 3-(((6-(2-(2,4-Difluorophenyl)-1,1-difluoro-2-hydroxy-3-(1H-tetrazol-1-yl)propyl)pyridin-3-yl)oxy)methyl)-2-fluorobenzonitrile], the pest or weed control at 50 ppm was in the range of 80 to 100%.

For the compound `OC(Cn1cnnn1)(c1ccc(F)cc1F)C(F)(F)c1ccc(OCc2ccc(F)cc2F)cn1` (stereo not drawn) [Compound 2, 1-(5-(2,4-Difluorobenzyloxy)pyridin-2-yl)-2-(2,4-difluorophenyl)-1,1-difluoro-3-(1H-tetrazol-1-yl)propan-2-ol], the pest or weed control at 50 ppm lay within 80 to 100%.

As to `OC(Cn1cnnn1)(c1ccc(F)cc1F)C(F)(F)c1ccc(OCc2ccc(OC(F)(F)F)cc2)cn1` (stereo not drawn) [Compound 21, 2-(2,4-Difluorophenyl)-1,1-difluoro-3-(1H-tetrazol-1-yl)-1-(5-((4-(trifluoromethoxy)benzyl)oxy)pyridin-2-yl)propan-2-ol], the pest or weed control at 50 ppm fell in the range of 80 to 100%.

On to `N#Cc1ccc(F)c(COc2ccc(C(F)(F)C(O)(Cn3cnnn3)c3ccc(F)cc3F)nc2)c1` (stereo not drawn) [Compound 59, 3-(((6-(2-(2,4-Difluorophenyl)-1,1-difluoro-2-hydroxy-3-(1H-tetrazol-1-yl)propyl)pyridin-3-yl)oxy)methyl)-4-fluorobenzonitrile], for which the pest or weed control at 50 ppm lay in the range of 80 to 100%.

Turning to `OC(Cn1cnnn1)(c1ccc(F)cc1F)C(F)(F)c1ccc(Oc2ccc(OC(F)(F)F)cc2)cn1` (stereo not drawn) [Compound 76, 2-(2,4-Difluorophenyl)-1,1-difluoro-3-(1H-tetrazol-1-yl)-1-(5-(4-(trifluoromethoxy)phenoxy)pyridin-2-yl)propan-2-ol], the pest or weed control at 50 ppm lay in the range of 80 to 100%.

Turning to `OC(Cn1cnnn1)(c1ccc(F)cc1F)C(F)(F)c1ccc(OCc2ccc(C(F)(F)F)cc2F)cn1` (stereo not drawn) [Compound 24, 2-(2,4-Difluorophenyl)-1,1-difluoro-1-(5-((2-fluoro-4-(trifluoromethyl)benzyl)oxy)pyridin-2-yl)-3-(1H-tetrazol-1-yl)propan-2-ol], the pest or weed control at 50 ppm was in the range of 80 to 100%.

In the case of `OC(Cn1cnnn1)(c1ccc(F)cc1F)C(F)(F)c1ccc(Oc2ncc(Cl)cn2)cn1` (stereo not drawn) [Compound 98, 1-(5-((5-chloropyrimidin-2-yl)oxy)pyridin-2-yl)-2-(2,4-difluorophenyl)-1,1-difluoro-3-(1H-tetrazol-1-yl)propan-2-ol], the pest or weed control at 50 ppm is 80 to 100%.

`OC(Cn1cnnn1)(c1ccc(F)cc1F)C(F)(F)c1ccc(OCc2ccccc2F)cn1` (stereo not drawn) [Compound 46, 2-(2,4-Difluorophenyl)-1,1-difluoro-1-(5-((2-fluorobenzyl)oxy)pyridin-2-yl)-3-(1H-tetrazol-1-yl)propan-2-ol]: the pest or weed control at 50 ppm lay in the range of 80 to 100%.

Consider `OC(Cn1cnnn1)(c1ccc(F)cc1F)C(F)(F)c1ccc(Oc2ccc(Br)cn2)cn1` (stereo not drawn) [Compound 106, 1-(5-((5-bromopyridin-2-yl)oxy)pyridin-2-yl)-2-(2,4-difluorophenyl)-1,1-difluoro-3-(1H-tetrazol-1-yl)propan-2-ol], for which the pest or weed control at 50 ppm fell in the range of 80 to 100%.

As for `COc1cccc(COc2ccc(C(F)(F)C(O)(Cn3cnnn3)c3ccc(F)cc3F)nc2)c1` (stereo not drawn) [Compound 34, 2-(2,4-Difluorophenyl)-1,1-difluoro-1-(5-((3-methoxybenzyl)oxy)pyridin-2-yl)-3-(1H-tetrazol-1-yl)propan-2-ol], the pest or weed control at 50 ppm lay in the range of 80 to 100%.

Consider `CC(Oc1ccc(C(F)(F)C(O)(Cn2cnnn2)c2ccc(F)cc2F)nc1)C(F)(F)F` (stereo not drawn) [Compound 47, 2-(2,4-Difluorophenyl)-1,1-difluoro-3-(1H-tetrazol-1-yl)-1-(5-((1,1,1-trifluoropropan-2-yl)oxy)pyridin-2-yl)propan-2-ol], for which the pest or weed control at 50 ppm is 80 to 100%.

For `OC(Cn1cnnn1)(c1ccc(F)cc1F)C(F)(F)c1ccc(OCc2ccc(C(F)(F)F)nc2)cn1` (stereo not drawn) [Compound 115, 2-(2,4-difluorophenyl)-1,1-difluoro-3-(1H-tetrazol-1-yl)-1-(5-((6-(trifluoromethyl)pyridin-3-yl)methoxy)pyridin-2-yl)propan-2-ol], the pest or weed control at 50 ppm lay within 80 to 100%.

On to `N#Cc1ccc(Oc2ccc(C(F)(F)C(O)(Cn3cnnn3)c3ccc(F)cc3F)nc2)cc1F` (stereo not drawn) [Compound 17, 4-((6-(2-(2,4-Difluorophenyl)-1,1-difluoro-2-hydroxy-3-(1H-tetrazol-1-yl)propyl)pyridin-3-yl)oxy)-2-fluorobenzonitrile], for which the pest or weed control at 50 ppm was 80 to 100%.
